Measurements as given in ChEMBL document CHEMBL3045212, “Synthesis of some imidazolyl-substituted 2-benzylidene indanone derivatives as potent aromatase inhibitors for breast cancer therapy” (Med Chem Res, 2011).
pIC50: −log10 of the molar value.

Columns and labels:
Aromatase [1] = target: T1, Aromatase (Homo sapiens, UniProt P11511); test: Inhibition of Homo sapiens (human) aromatase assessed as 3H2O formation using [1beta,2beta-3H]testosterone as substrate by liquid scintillation counting analysis
T1 sequence (P11511 whole entry): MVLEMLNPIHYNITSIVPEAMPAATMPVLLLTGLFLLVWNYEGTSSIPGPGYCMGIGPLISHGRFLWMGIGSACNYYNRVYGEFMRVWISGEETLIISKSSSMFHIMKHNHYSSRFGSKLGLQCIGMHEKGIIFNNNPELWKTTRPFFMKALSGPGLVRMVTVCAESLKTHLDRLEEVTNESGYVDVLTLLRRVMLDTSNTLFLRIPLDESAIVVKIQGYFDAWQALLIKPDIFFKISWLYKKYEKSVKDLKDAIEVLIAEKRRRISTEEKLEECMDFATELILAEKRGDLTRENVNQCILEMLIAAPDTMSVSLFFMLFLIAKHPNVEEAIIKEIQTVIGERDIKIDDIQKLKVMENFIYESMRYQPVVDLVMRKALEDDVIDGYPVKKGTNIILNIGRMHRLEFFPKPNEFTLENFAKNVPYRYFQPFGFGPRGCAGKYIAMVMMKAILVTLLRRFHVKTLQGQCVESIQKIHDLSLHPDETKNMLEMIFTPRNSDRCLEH

Aromatase [2] = target: T1, Aromatase; test: Ratio of aminoglutethimide IC50 to compound IC50 for Homo sapiens (human) aromatase
Aromatase [3] = target: T1, Aromatase; test: Inhibition of Homo sapiens (human) aromatase assessed as 3H2O formation using [1beta,2beta-3H]testosterone as substrate at 36 uM by liquid scintillation counting analysis

SMILES | pIC50 (Aromatase [1]) | Ratio IC50 (Aromatase [2]) | inhibition at 36 µM (Aromatase [3]) | further results
O=C1/C(=C/c2cccc(OCCCn3ccnc3)c2)Cc2ccccc21 | 6.15 | 42.5 | – | –
O=C1/C(=C/c2cccc(OCCCCl)c2)Cc2ccccc21 | – | – | 13% | –
COc1cc(/C=C2\Cc3ccccc3C2=O)ccc1OCCCCl | – | – | 8.5% | –
O=C1/C(=C/c2ccccc2OCCCn2ccnc2)Cc2ccccc21 | 5.96 | 26.6 | – | –
COc1ccc(/C=C2\Cc3ccccc3C2=O)cc1OCCCn1ccnc1 | 5.87 | 22.5 | – | –
O=C1/C(=C/c2c[nH]c3ccccc23)Cc2ccccc21 | – | – | 6% | –
COc1ccc(/C=C2\Cc3ccccc3C2=O)cc1OCCCCl | – | – | 8% | –
COc1cc(/C=C2\Cc3ccccc3C2=O)ccc1OCCN(C)C | – | – | – | inhibition (INH) (Aromatase [3]; 36 µM): Not Active
O=C1/C(=C/c2ccccc2OCCCCl)Cc2ccccc21 | – | – | 8% | –
COc1cc(/C=C2\Cc3ccccc3C2=O)ccc1OCCCn1ccnc1 | – | 54.1 | – | –
